# Assay results as given in US5100907A, “Hydantoin esters” (Lonza, Inc., priority 1990, dated 1992).
# Tests used:
# [1] = Surface tension tests (cmc, Gibbs' Free Energy of Micellation); type: physicochemical
# Protocol: Surface tension tests were conducted as to the relationship between the fatty acid aliphatic chain length, i.e. number of carbon atoms, in the esters (I), and their performance as surfactants. The length of the hydrophobic chain of a molecule is considered the major contributing factor to the critical micelle concentration (cmc) value of a surfactant. This value is obtained from surface tension measurement data. The lower the cmc, the more readily the material will form micelles.
# The Gibbs' Free Energy of Micellation (ΔG°cmc) and the ΔG°cmc per --CH2 -- can be determined if the cmc is known.
# The ΔG°cmc is a calculated value obtained by Equation 1.
# ΔG°cmc =2.303RT(log cmc-log[water]) (Eq. 1)
# The ΔG°cmc per --CH2 -- value is obtained from the slope of the straight line curve formed from a plot of ΔG°cmc versus the number of carbon atoms in the lipophilic chain.
# The cmc values were based on surface tension tests conducted with a tensiometer (Cenco-DuNoug Precision Model #70535, direct reading model) to determine the upward surface tension at the liquid-air surface of the test ester/water solution. The methods used to calibrate the tensiometer, calculate the "correction factor" (used to correct for the difference between the apparent and true surface tension), and collect data, were conducted as described in the manual for the instrument. Sodium lauryl sulfate (SLS) and distilled water were used as reference samples.
# On completing data collection, plots of the surface tension (dynes) versus -log of the concentration (mols/liter) were prepared, using only the "corrected" surface tension value, obtained by applying the noted "correction factor" in each case. The […] was found by multiplying the "apparent" surface tension by a calculated correction factor.
# The critical micelle concentration (cmc) for each sample was determined by locating the point in the curve where the surface tension first begins to level off, per a known procedure.
# Escherichia coli = assay: Antimicrobial study against Escherichia coli (gram-negative bacteria); type: cell-based; settings: methylolated C8/10 10,800 ppm, methylolated lauric 11,400 ppm, DMDMH 3,000 ppm, others 14,700 ppm
# Staphylococcus species b = assay: Preservative challenge test against Staphylococcus species b; type: cell-based; settings: end of 14 day period
# Protocol: Microbiological challenge tests were also conducted with the lauric and oleic esters (I), representing molecules having C12 and C18 aliphatic fatty acid chain length moieties, respectively.
# These preservative challenge tests were used to determine the biocidal performance of these two esters (I) in aqueous solution and dispersion formulations inoculated with a given one of two test organisms, previously isolated from a contaminated calcium carbonate (CaCO3) dispersion, i.e. gram-positive bacteria, designated Staphylococcus species a and Staphylococcus species b, as compared to three known biocides or preservatives, designated as DANTOGARD (trademark), Tektamer 38 (1,2-dibromo-2,4-dicyanobutane) and Nuodex PMA-18.
# The solution formulation was represented by the inclusion of the test sample as preservative system in deionized water, and the dispersion formulation was represented by the inclusion of the test sample as preservative system in a CaCO3 aqueous dispersion (identified as Hydrocarb 60), the latter typifying a dispersed pigment medium, e.g. as used in a paint or other industrial dispersion or slurry. The antimicrobial activity of the test samples was evaluated at individually selective concentrations.
# All these liquid samples were stored at room temperature until the start of the tests. The test organisms were maintained or nutrient agar at 4° C. and subcultured in nutrient broth (Difco), and a 24 hour culture incubated at 35° C. was used for the testing over a challenge test time period of 14 days.
# The test formulations were prepared per a standardized procedure, by placing 20 ml aliquots of the stored sample into sterile test tubes, and then adding 0.1 ml of a standardized 10^6 suspension of a 24 hour culture in nutrient broth. Plate counts were taken immediately to determine the initial level of the microbial population, and the containers were incubated at 20°-25° C. Plate counts were retaken at 1, 3, 7 and 14 days, with the final reductions being calculated from the 14 days results.
# [2] = among esters (I) examined, Table 6
"cmc, relative rank [1, 2]","ΔG°cmc, relative rank [1, 2]","ΔG°cmc (Gibbs' Free Energy of Micellation) ([1]; calculated from cmc by Eq. 1, T=298° K.)",cmc (critical micelle concentration) ([1]; ester/water solution),SMILES,surface active properties [1],Colony Count (Escherichia coli; Day 0),Colony Count (Escherichia coli; Day 1),Colony Count (Escherichia coli; Day 2),Colony Count (Escherichia coli; Day 3),Colony Count (Escherichia coli; Day 7),effectiveness as preservative (Staphylococcus species b; water),effectiveness as preservative (Staphylococcus species b; calcium carbonate aqueous dispersions)
–,–,–,–,"CCCCCCCCCCCC(=O)OCCN1C(=O)N(CO)C(=O)C1(C)C [Methylolated Lauric Ester, 2-(3-hydroxymethyl-5,5-dimethyl-1,3-diazacyclopentane-2,4-dion-1-yl)-ethylester of lauric acid]",particularly favorable surface active properties,TNC,TNC,"< 0.01 × 1,000","< 0.01 × 1,000","< 0.01 × 1,000",effective as preservatives in water,–
the lowest cmc values,the lowest ΔG°cmc values,-6.962 kcal/mol,4.0 × 10^-4 mol dm^-3,"CCCCCCCC/C=C\CCCCCCCC(=O)OCCN1C(=O)N(CO)C(=O)C1(C)C [Methylolated Oleic Ester, 2-(3-hydroxymethyl-5,5-dimethyl-1,3-diazacyclopentane-2,4-dion-1-yl)-ethylester of oleic acid]",particularly favorable surface active properties,"4,000 × 1,000","< 0.01 × 1,000","< 0.01 × 1,000","< 0.01 × 1,000","< 0.01 × 1,000",effective as preservatives in water,effective as a preservative in calcium carbonate aqueous dispersions
